Assay results as given in patent US20080234373A1, “Compound Useful For the Prevention and Treatment of Left Ventricular Hypertrophy in Dialysed Patients” (SIGMA-TAU INDUSTRIE FARMACEUTICHE RIUNITE S.P.A., priority 2005, published 2008).

Experiments:
[1] = test system: left ventricular (LV) muscle mass and LV systolic and diastolic function; conditions: 58 patients with primary glomerulonephritis and moderate chronic renal failure; cited from earlier work
[2] = test system: left ventricular hypertrophy (LVH) in ESRD dialysed patients; test: Clinical trial of propionyl L-carnitine in ESRD patients on dialysis (multicentre, randomized, double-blind, placebo-controlled; echocardiography); assay type: in vivo
Procedure: A clinical trial (multicentre, parallel, randomized, double-blind, dose-ranging placebo-controlled study in 300 patients) useful for evaluating both preventive and/or curative effect of the treatment with propionyl L-carnitine (3 and 6 mg/kg given intravenously three times a week at the end of the hemodyalisis session for 26 weeks) has been done.
Inclusion Criteria • 1) male or female out-patients aged >18 years, suffering from ESRD on bicarbonate dialysis three times a week; • 2) patients who have reached a certain degree of dialytic stability (at least since six months on dialysis), so that the variability due to the progressive patient adaptation of the therapeutic treatment is controlled, presenting no clinical signs of hydric overload at the end of dialysis; • 3) patients showing a degree of cardiac deterioration defined as inter-ventricular septum and left ventricular wall thickness >11 mm; • 4) patients with left ventricular ejection fraction >40%; • 5) patients under stable pharmacological treatment for at least three months; • 6) absence of acute ischaemic events (effort angina, unstable angina, AMI) during the last three months; • 7) presence of an adequate acoustic window and a good echogenicity; • 8) capacity of co-operating with the administered questionnaire. […]

| Compound | LV ejection fraction, early and late transmittal flow velocities and early to late LV inflow velocities ratio [1] | signs of LVH (a)-(c): left-ventricular septum and posterior wall thickness, end-systolic and end-diastolic size and volume, ejection fraction ([2]; 3 and 6 mg/kg intravenously three times a week at end of hemodialysis for 26 weeks, preliminary ANOVA analysis, treated versus control group) | progression of the signs of LVH (a)-(c) respect to base line ([2]; 3 and 6 mg/kg intravenously three times a week for 26 weeks, T26 vs T0 in treated group, control group worsened) |
| --- | --- | --- | --- |
| CCOC(=O)[C@H](CCc1ccccc1)N[C@@H](C)C(=O)N1CCC[C@H]1C(=O)O [enalapril] | not significantly affected |  |  |
| C[C@H](CS)C(=O)N1CCC[C@H]1C(=O)O [captopril] | not significantly affected |  |  |
| CCC(=O)O[C@H](CC(=O)[O-])C[N+](C)(C)C [propionyl L-carnitine] |  | useful for treating the signs of LVH | able to reduce the progression of the signs of LVH |
